From patent publication US9897607B2, “Methods, kits, and systems for treatment of metastatic papillary thyroid cancer” (The Governors of the University of Alberta, priority 2012, dated 2018)
Entries after “also recorded” stand apart in the source; their conditions may differ.

Tests used:
[1] = test system: TPC-1 cell line; assay: Cell viability (MTS assay), TPC-1; assay type: cell-based, human; settings: small molecule inhibitors Ly294002, U0126, 16 hours
Protocol: (§1) As previously described, Cytoselect™ 96-well cell invasion assay kit was used (Cell Biolabs, San Diego, Calif., USA) to assess cell invasiveness according to the manufacturer's protocol.^46 Briefly, TPC-1, BCPAP and 8305C after transfected with either PDGFRα siRNA or scramble siRNA, 10000 cells were starved overnight and added to the inserts, PDGF-BB was added to some wells at the concentration of 25 ng/mL, PDGF-BB was added 1 h later for inhibitors, sunitinib (0.2 umol/L), Ly294002 (10 umol/L) and (U0126) 2 umol/L, cells were seeded into the insert plate for 16 hours, the invasive cells passed through basement membrane layer to the bottom and dissociated from membrane by the addition of cells detachment buffer, the invasive cells were lysed and followed by quantification using CyQuant GR fluorescent Dye. For cell viability analysis 10000 cells were seeded per well and cultured for 16 hours. MTS assay (Promega, Madison, USA) was then performed in 4 replicates followed manufacturer's instructions. PTC cell lines transfected with PDGFR specific siRNA or scrambled control were plated at a density of 10,000 or 20,000/ml and cultured for 5 days. Cell counts were done on days 2, 3 and 5 using trypan blue (Sigma-Aldrich, Oakville, Canada) and results expressed as total number of viable cells. […] The absorbance was recorded by a BioRad spectrophotometer at day 5 of cell culture.

[2] = test system: thyroid cancer; settings: thyroid cancer trials; cited from earlier work
[3] = test system: TPC-1 cell line; assay: Cytoselect cell invasion assay, TPC-1; assay type: cell-based, human
Protocol: (§2) As previously described, Cytoselect™ 96-well cell invasion assay kit was used (Cell Biolabs, San Diego, Calif., USA) to assess cell invasiveness according to the manufacturer's protocol.^46 Briefly, TPC-1, BCPAP and 8305C after transfected with either PDGFRα siRNA or scramble siRNA, 10000 cells were starved overnight and added to the inserts, PDGF-BB was added to some wells at the concentration of 25 ng/mL, PDGF-BB was added 1 h later for inhibitors, sunitinib (0.2 umol/L), Ly294002 (10 umol/L) and (U0126) 2 umol/L, cells were seeded into the insert plate for 16 hours, the invasive cells passed through basement membrane layer to the bottom and dissociated from membrane by the addition of cells detachment buffer, the invasive cells were lysed and followed by quantification using CyQuant GR fluorescent Dye. For cell viability analysis 10000 cells were seeded per well and cultured for 16 hours. MTS assay (Promega, Madison, USA) was then performed in 4 replicates followed manufacturer's instructions. PTC cell lines transfected with PDGFR specific siRNA or scrambled control were plated at a density of 10,000 or 20,000/ml and cultured for 5 days. Cell counts were done on days 2, 3 and 5 using trypan blue (Sigma-Aldrich, Oakville, Canada) and results expressed as total number of viable cells. MTS assay was done in 7 replicates as per manufacturer's instructions. The absorbance was recorded by a BioRad spectrophotometer at day 5 of cell culture.

[4] = test system: PDGFR-α/β, MAPK/ERK and PI3K/Akt pathways in TPC-1 cells; assay: Western blot of PDGFR activation and MAPK/ERK, PI3K/Akt signalling, TPC-1; assay type: cell-based, human
Protocol: (§3) Primary cell culture and experimental cell lines were maintained in RPMI 1640 media supplemented with 10% FBS. The cells were seeded in a 100-mm culture dish and were grown in a humidified 5% CO2 incubator. For PDGF-BB stimulation (25 ng/ml), cells were grown to about 80% confluence and incubated in serum-free medium overnight prior to each experiment. MAPK/ERK inhibitors U0126 and PD98059 were purchased from Calbiochem (Toronto, Ontario, Canada). PI3K/Akt inhibitor ly294002 was purchased from Cell Signaling Technology (Danvers, Mass., USA). Cells that were treated with inhibitors were given varying concentrations: U0126; 2 umol/L and 10 umol/L; Ly294002 10 umol/L and 25 umol/L; Sunitinib 0.25 umol/L. In all cases, unless otherwise indicated the inhibitors were given to cells and 60 minutes later the PDGF-BB was added to the cultures followed by Western blot analysis.
(§4) Cells were lysed in RIPA buffer [150 mM NaCl, 100 mM Tris (pH 8.0), 1% Triton X-100, 1% deoxycholic acid, 0.1% SDS, 5 mM EDTA, and 10 mM NaF] supplemented with 1 mM sodium vanadate, 2 mM leupeptin, 2 mM aprotinin, 1 mM phenylmethylsulfonyl fluoride (PMSF), 1 mM DTT, 2 mM pepstatin, and 1:100 protease inhibitor cocktail set III on ice. After centrifugation at 4° C. at 18,000 rpf for 15 min, the supernatant was harvested as the total cellular protein extracts and stored at −80° C. The protein concentration was determined using Bio-Rad protein assay reagent (Richmond, Va., USA). Running samples were prepared by adding a sample reducing agent and SDS sample buffer, incubating at 98° C. for 5 min. Aliquots of protein extract samples were separated by SDS-polyacrylamide gel electrophoresis (SDS-PAGE) and transferred to nitrocellulose membrane. Membranes were blocked with 5% nonfat dry milk in 1×TBS containing 0.05% Tween-20 for 60 min, followed by incubation with primary antibodies 4° C. overnight. Protein bands were detected by incubation with horseradish peroxidase-conjugated antibodies (Pierce Biotechnology, Rockford, Ill., USA) and visualized with SuperSignal West Pico chemiluminescence substrate (Thermo Scientific, Rockford, Ill., USA).

[5] = test system: PDGFR-α (phospho-PDGFR), PI3K/Akt and MAPK/ERK pathways; assay: Western blot of primary cell culture from metastatic papillary thyroid cancer lymph node, PDGF-BB stimulation; assay type: cell-based, human
Protocol: as §3, §4

[6] = test system: 8305C cell line; assay: Cytoselect cell invasion assay, 8305C; assay type: cell-based, human
Protocol: as §2

[7] = test system: BCPAP cell line; assay: Cytoselect cell invasion assay, BCPAP; assay type: cell-based, human
Protocol: as §1

[8] = test system: TPC-1, 8305C and BCPAP cell lines; assay: Cell growth of PTC cell lines with sunitinib (FIG. 6); assay type: cell-based, human; settings: all of the cell lines; absence of PDGF-BB stimulation
[9] = test system: PDGFR-α/β, MAPK/ERK and PI3K/Akt pathways in 8305C cells; assay: Western blot of PDGFR activation and MAPK/ERK, PI3K/Akt signalling, 8305C; assay type: cell-based, human
Protocol: as §3, §4

[10] = test system: KTC-1 cell line; assay: Cytoselect cell invasion assay, KTC-1; assay type: cell-based, human; settings: KTC-1 (neither subunit); also increasing levels or longer stimulation
[11] = test system: TPC-1-derived cell lines; assay: Mice xenograft model with shRNA TPC-1-derived cell lines; assay type: in vivo; settings: mice inoculated with cell lines in Matrigel; 20 days after inoculation; versus other groups
Protocol: To selectively and stably silence the expression of the PDGFR-alpha and-beta receptors in the TPC-1, BCPAP and 8305C cell lines we used the HuSH-29 shRNA Vector system (HuSH-29 shRNA Retroviral Vector Systems; OriGene Technologies, Inc.). Briefly, to silence the expression of the PDGFR-alpha receptor PTC cells were transduced with the pRS shRNA retrovirus system (Puro+) followed by selection in puromycin (2.5 ug/mL). Resistant cells were assessed by western blot to select the sequences that produced the higest levels of protein expression knock-down. The sequences used for these studies were […] (SEQ ID NO: 1) for the TPC-1 cell line and […] (SEQ ID NO: 2) for the 8305C cell line. To selectively knock down the PDGFR-beta receptor were transduced with the pGFP-BR-S shRNA retrovirus system (BSD+) followed by selection in blasticidin (500 ug/mL). Resistant cells were again assessed by western blot to select the sequences that produced the higest levels of protein expression knock-down. […]
The experiments of FIG. 13 depict knock down of PDGFR-alpha or -beta subunit results in opposing effects in tumour formation on a mice xenograft model. […] The average tumour volume (top panel) and tumour weight (bottom panel) was much higher for mice given cell lines expressing only PDGFR-alpha and statistical significance between groups were calculated 20 days after inoculation.

[12] = primary culture, PDGF-BB 25 ng/ml

O=c1cc(N2CCOCC2)oc2c(-c3ccccc3)cccc12 [Ly294002]
cell viability [1]: not significantly altered

CNC(=O)c1cc(Oc2ccc(NC(=O)Nc3ccc(Cl)c(C(F)(F)F)c3)cc2)ccn1 [Sorafenib, sorafenib]
outcomes [2]: favourable outcomes | side-effect profiles [2]: acceptable side-effect profiles

N#CC(=C(/N)Sc1ccccc1N)/C(C#N)=C(\N)Sc1ccccc1N [U0126]
PDGF-BB mediated increases in invasive potential ([3]; TPC-1, U0126 2 umol/L (MAPK/ERK blockade), PDGF-BB 25 ng/mL 1 h later, 16 hours): sufficient to abrogate increases in invasive potential; also recorded: prevents PDGF-BB mediated increases in invasive potential | cell viability [1]: not significantly altered | MAPK/ERK pathway blockade (Western blot) ([4]; PDGF-BB stimulated TPC-1 cells, U0126 2 umol/L and 10 umol/L): decreased protein expression; also recorded: nearly complete

CCN(CC)CCNC(=O)c1c(C)[nH]c(/C=C2\C(=O)Nc3ccc(F)cc32)c1C [sunitinib, Sunitinib malate]
activation of PDGFR (phospho-PDGFR) and downstream PI3K/Akt and MAPK/ERK pathways by PDGF-BB ([5]; sunitinib 0.25 umol/L given 60 minutes before PDGF-BB 25 ng/ml, semi-quantitative Western blot): can be blocked; also recorded: completed blocked | change in invasive potential with PDGF-BB stimulation ([3]; TPC-1, sunitinib 0.2 umol/L, PDGF-BB 25 ng/mL added 1 h later, 16 hours): virtually completely abates any change in invasive potential; also recorded: abated any change in invasive potential | invasive potential without PDGF-BB stimulation ([3]; TPC-1, sunitinib 0.2 umol/L, no PDGF-BB): does not alter invasive potential | change in invasive potential with PDGF-BB stimulation ([6]; 8305C, sunitinib 0.2 umol/L, PDGF-BB 25 ng/mL added 1 h later, 16 hours): virtually completely abates any change in invasive potential; also recorded: abated any change in invasive potential | invasive potential without PDGF-BB stimulation ([6]; 8305C, sunitinib 0.2 umol/L, no PDGF-BB): does not alter invasive potential | invasive potential without PDGF-BB stimulation ([7]; BCPAP, sunitinib 0.2 umol/L, no PDGF-BB): does not alter invasive potential | effect on cell growth [8]: not significant | activation of PDGFR-α/β (phospho-PDGFR) ([4]; TPC-1, sunitinib 0.25 umol/L, PDGF-BB 25 ng/ml 60 minutes later): completely disrupts PDGFR activation; also recorded: completely blocks activation of PDGFR-α/β | activity in PI3K/Akt and MAPK/ERK pathways ([4]; TPC-1, sunitinib 0.25 umol/L, PDGF-BB stimulated): significant decreased activity | activation of PDGFR-α/β (phospho-PDGFR) ([9]; 8305C, sunitinib 0.25 umol/L, PDGF-BB 25 ng/ml 60 minutes later): completely disrupts PDGFR activation; also recorded: completely blocks activation of PDGFR-α/β | activity in PI3K/Akt and MAPK/ERK pathways ([9]; 8305C, sunitinib 0.25 umol/L, PDGF-BB stimulated): significant decreased activity | outcomes [2]: favourable outcomes | side-effect profiles [2]: acceptable side-effect profiles

PDGF-BB: PDGFR ligand known to bind all subunits of PDGFR, purchased from GIBCO
phospho-Akt (PI3K/Akt pathway) [5, 12]: significant increases | phospho-ERK (MAPK/ERK pathway) [5, 12]: small increase | phospho-PDGFR [5, 12]: activated PDGFR-α | invasive potential on PDGF-BB stimulation ([3]; TPC-1 (PDGFR-α and -β), PDGF-BB 25 ng/mL): significant increase in invasive potential; also recorded: increased invasive potential | invasive potential on PDGF-BB stimulation ([6]; 8305C (PDGFR-α only), PDGF-BB 25 ng/mL): significant increase in invasive potential; also recorded: increased invasive potential | invasive potential on PDGF-BB stimulation ([7]; BCPAP (PDGFR-β only), PDGF-BB 25 ng/mL): did not exhibit any change in invasive potential | invasive potential on PDGF-BB stimulation [10]: did not exhibit any change in invasive potential | phospho-PDGFR-α/β, phospho-Akt, and phospho-ERK ([4]; TPC-1, PDGF-BB 25 ng/ml): strong up-regulation | time of return of levels to baseline ([4]; TPC-1, PDGF-BB stimulation): ~60 min | time to increases in phospho-PDGFR-α/β, phospho-Akt and phospho-ERK ([4]; TPC-1, PDGF-BB stimulation): ≤ 5 min | time to maximal activation of both pathways ([4]; TPC-1, PDGF-BB stimulation): ≤ 15 min | phospho-ERK ([9]; 8305C (BRAF mutation, MAPK/ERK constitutively activated), PDGF-BB): small increase | phospho-PDGFR-α/β, phospho-Akt, and phospho-ERK ([9]; 8305C, PDGF-BB 25 ng/ml): strong up-regulation

TGCCTCCGACGAGATCTATGAGATCATGC (SEQ ID NO: 3) (listed as Homo sapiens) [sh PDGFR-beta, shRNA (pGFP-BR-S retrovirus system) knocking down PDGFR-beta in TPC-1; cells then express only PDGFR-alpha]
average tumour volume [11]: much higher | tumour weight [11]: much higher
